Structures can show the parent of a compound that is named as a salt. Where two headings read alike, the source gives them in different places.
How the values were obtained:
[1] = test system: HCV replicon in Huh7 cells; experiment: HCV replicon cell-based assay (replicon FRET assay); parameters: species or system HCV strain 1B; settings: EC50 ranges
Source text: An HCV replicon whole cell system was established as described by Lohmann V, Korner F, Koch J, Herian U, Theilmann L, Bartenschlager R., Science 285 (5424):110-3 (1999). This system enabled us to evaluate the effects of our HCV Protease compounds on HCV RNA replication. Briefly, using the HCV strain 1B sequence described in the Lohmann paper (Assession number:AJ238799), an HCV cDNA was generated encoding the 5′ internal ribosome entry site (IRES), the neomycin resistance gene, the EMCV (encephalomyocarditis viurs)-IRES and the HCV nonstructural proteins, NS3-NS5B, and 3′ non-translated region (NTR). In vitro transcripts of the cDNA were transfected into the human hepatoma cell line, Huh7. […] Resulting cell lines were characterized for positive and negative strand RNA production and protein production over time.
Huh7 cells, constitutively expressing the HCV replicon, were grown in Dulbecco's Modified Eagle Media (DMEM) containing 10% Fetal calf serum (FCS) and 1 mg/ml G418 (Gibco-BRL). Cells were seeded the night before (1.5×10^4 cells/well) in 96-well tissue-culture sterile plates. Compound and no compound controls were prepared in DMEM containing 4% FCS, 1:100 Penicillin/Streptomysin, 1:100 L-glutamine and 5% DMSO in the dilution plate (0.5% DMSO final concentration in the assay). Compound/DMSO mixes were added to the cells and incubated for 4 days at 37° C. After 4 days, plates were rinsed thoroughly with Phosphate-Buffered Saline (PBS) (3 times 150 μl). The cells were lysed with 25 μl of a lysis assay reagent containing the FRET peptide (RET S1, as described for the in vitro enzyme assay). The lysis assay reagent was made from 5× cell Luciferase cell culture lysis reagent(Promega #E153A) diluted to 1× with distilled water, NaCl added to 150 mM final, the FRET peptide diluted to 10 μM final from a 2 mM stock in 100% DMSO. The plate was then placed into the Cytofluor 4000 instrument which had been set to 340 nm excitation/490 emission, automatic mode for 21 cycles and the plate read in a kinetic mode. EC50 determinations were carried out as described for the IC50 determinations.

[2] = target: T1, HCV NS3/4A protease complex, BMS strain (genotype 1a) (Hepatitis C virus genotype 1a, UniProt P27958, C1454S/C1711G); experiment: Recombinant HCV NS3/4A protease complex FRET peptide assay (BMS strain); type: biochemical; settings: IC50 ranges
T1 construct: recombinant HCV NS3/4A protease complex (amino'acids 1027 to 1711); inferred from the pET21b vector and Ni-NTA purification; made in house; host or cells: Escherichia coli BL21 (DE3), pET21b
Source text: The purpose of this in vitro assay was to measure the inhibition of HCV NS3 protease complexes, derived from the BMS, H77C or J4L6S strains, as described below, by compounds of the present invention. This assay provides an indication of how effective compounds of the present invention would be in inhibiting HCV proteolytic activity.
Serum from an HCV-infected patient was obtained from Dr. T. Wright, San Francisco Hospital. An engineered full-length cDNA (compliment deoxyribonucleic acid) template of the HCV genome (BMS strain) was constructed from DNA fragments obtained by reverse transcription-PCR (RT-PCR) of serum RNA (ribonucleic acid) and using primers selected on the basis of homology between other genotype 1a strains. From the determination of the entire genome sequence, a genotype 1a was assigned to the HCV isolate according to the classification of Simmonds et al. (See P Simmonds, K A Rose, S Graham, S W Chan, F McOmish, B C Dow, E A Follett, P L Yap and H Marsden, J. Clin. Microbiol., 31 (6), 1493-1503 (1993)). […] The infectious clones, H77C (1a genotype) and J4L6S (1b genotype) were obtained from R. Purcell (N1H) and the sequences are published in Genbank (AAB67036, see Yanagi, M., Purcell, R. H., Emerson, S. U. and Bukh, J. Proc. Natl. Acad. Sci. U.S.A. 94 (16), 8738-8743 (1997); AF054247, see Yanagi, M., St Claire, M., Shapiro, M., Emerson, S. U., Purcell, R. H. and Bukh, J, Virology 244 (1), 161-172. (1998)).
The BMS, H77C and J4L6S strains were used for production of recombinant NS3/4A protease complexes. DNA encoding the recombinant HCV NS3/4A protease complex (amino'acids 1027 to 1711) for these strains were manipulated as described by P. Gallinari et al. (see Gallinari P, Paolini C, Brennan D, Nardi C, Steinkuhler C, De Francesco R. Biochemistry. 38 (17):5620-32, (1999)). Briefly, a three-lysine solubilizing tail was added at the 3′-end of the NS4A coding region. The cysteine in the P1 position of the NS4A-NS4B cleavage site (amino acid 1711) was changed to a glycine to avoid the proteolytic cleavage of the lysine tag. Furthermore, a cysteine to serine mutation was introduced by PCR at amino acid position 1454 to prevent the autolytic cleavage in the NS3 helicase domain. The variant DNA fragment was cloned in the pET21b bacterial expression vector (Novagen)and the NS3/4A complex was expressed in Escherichia. coli strain BL21 (DE3) (Invitrogen) following the protocol described by P. Gallinari et al. (see Gallinari P, Brennan D, Nardi C, Brunetti M, Tomei L, Steinkuhler C, De Francesco R., J. Virol. 72 (8):6758-69 (1998)) with modifications. Briefly, NS3/4A expression was induced with 0.5 mM Isopropyl β-D-1-thiogalactopyranoside (IPTG) for 22 hr at 20° C. A typical fermentation (10L) yielded approximately 80 g of wet cell paste. The cells were resuspended in lysis buffer (10 mL/g) consisting of 25 mM N-(2-Hydroxyethyl)Piperazine-N′-(2-Ethane Sulfonic acid) (HEPES), pH 7.5, 20% glycerol, 500 mM Sodium Chloride (NaCl), 0.5% Triton-X100, 1 ug/ml lysozyme, 5 mM Magnesium Chloride (MgCl2), 1 ug/ml Dnasel, 5 mM β-Mercaptoethanol (OME), Protease inhibitor-Ethylenediamine Tetraacetic acid (EDTA) free (Roche), homogenized and incubated for 20 mins at 4° C. The homogenate was sonicated and clarified by ultra-centrifugation at 235000 g for 1 hr at 4° C. Imidazole was added to the supernatant to a final concentration of 15 mM and the pH adjusted to 8.0. The crude protein extract was loaded on a Nickel-Nitrilotriacetic acid (Ni-NTA) column pre-equilibrated with buffer B (25 mM HEPES, pH 8.0, 20% glycerol, 500 mM NaCl, 0.5% Triton-X100, 15 mM imidazole, 5 mM βME). The sample was loaded at a flow rate of 1 mL/min. The column was washed with 15 column volumes of buffer C (same as buffer B except with 0.2% Triton-X100). The protein was eluted with 5 column volumes of buffer D (same as buffer C except with 200 mM Imidazole). […]

[3] = Hepatitis C virus, Huh-7, HCV replicon cell assay
[4] = IC50, HCV NS3/4A protease FRET assay in vitro

T1 sequence (P27958 1027-1711 C1454S/C1711G, one chain of several): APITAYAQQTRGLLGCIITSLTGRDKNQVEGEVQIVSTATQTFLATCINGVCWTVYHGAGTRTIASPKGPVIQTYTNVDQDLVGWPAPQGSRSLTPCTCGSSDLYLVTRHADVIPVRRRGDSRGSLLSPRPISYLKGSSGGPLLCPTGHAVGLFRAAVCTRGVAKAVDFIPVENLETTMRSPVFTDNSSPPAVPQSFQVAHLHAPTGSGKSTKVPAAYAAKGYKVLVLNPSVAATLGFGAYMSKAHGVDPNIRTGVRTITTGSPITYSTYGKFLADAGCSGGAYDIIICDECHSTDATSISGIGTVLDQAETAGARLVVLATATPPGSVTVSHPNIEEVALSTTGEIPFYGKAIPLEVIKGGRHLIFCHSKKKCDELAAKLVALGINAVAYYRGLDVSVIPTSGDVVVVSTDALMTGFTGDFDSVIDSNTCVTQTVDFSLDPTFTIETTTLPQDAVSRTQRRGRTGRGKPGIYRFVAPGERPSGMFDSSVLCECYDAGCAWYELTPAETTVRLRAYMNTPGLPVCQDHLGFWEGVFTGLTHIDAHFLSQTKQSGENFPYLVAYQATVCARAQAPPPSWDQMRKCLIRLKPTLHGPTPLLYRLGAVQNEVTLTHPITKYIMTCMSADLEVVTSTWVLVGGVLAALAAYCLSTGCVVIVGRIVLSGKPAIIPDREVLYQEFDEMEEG

For `COc1ccc2c(O[C@@H]3C[C@H]4C(=O)N[C@]5(C(=O)NS(=O)(=O)C6CC6)CC5/C=C\CCCC[C@H](NC(=O)OC(C)(C)C)C(=O)N4C3)cc(-c3ccccc3)nc2c1` (stereo partly drawn) [Compound 7, (1S,4R,65,13S,17R)-7-cis-[4-Cyclopropanesulfonylamino-carbonyl-17-(7-methoxy-2-phenylquinolin-4-yloxy)-2,14-dioxo-3,15-diazatricyclo[13.3.0.0^4,6]octadec-7-en-13-yl]carbamic acid tert-butyl ester], the EC50 [1, 3] was < 50 nM and the IC50 [2, 4] was < 50 nM.

With `CC(C)(C)OC(=O)N[C@H]1CCCCC/C=C\[C@@H]2C[C@@]2(C(=O)NS(=O)(=O)C2CC2)NC(=O)[C@@H]2C[C@@H](Oc3ccnc4c(C(F)(F)F)cccc34)CN2C1=O` [Compound 33, (1S,4R,6S,14S,18R)-7-cis-[4-Cyclopropanesulfonylaminocarbonyl-2,15-dioxo-18-(8-trifluoromethylquinol-in-4-yloxy)-3,16-diazatricyclo[14.3.0.04,6]nonadec-7-en-14-yl]-carbamic acid tert-butyl ester] the EC50 [1, 3] was < 50 nM and the IC50 [2, 4] was < 50 nM.

For `COc1ccc2c(O[C@@H]3C[C@H]4C(=O)N[C@]5(C(=O)NS(=O)(=O)C6CC6)C[C@H]5/C=C\CCCCC[C@H](NC(=O)OC(C)(C)C)C(=O)N4C3)cc(-c3csc(NC(C)=O)n3)nc2c1` [Compound 28, (1S,4R,6S,14S,18R)-7-cis-{18-[2-(2-Acetylaminothiazol-4-yl)-7-methoxyquinolin-4-yloxy]-4-cyclopropanesulfonylaminocarbonyl-2,15-dioxo-3,16-diazatricyclo-[14.3.0.0^4,6]nonadec-7-en-14-yl}carbamic acid tert-butyl ester], the EC50 [1, 3] was < 50 nM and the IC50 [2, 4] was < 50 nM.

For `COc1ccc2c(O[C@@H]3C[C@H]4C(=O)N[C@]5(C(=O)NS(=O)(=O)C6CC6)CC5/C=C/CCCC[C@H](NC(=O)OC(C)(C)C)C(=O)N4C3)cc(-c3ccccc3)nc2c1` (stereo partly drawn) [Compound 5, (1S,4R,6S,13S,17R)-7-trans-[4-Cyclopropanesul-fonylamino-carbonyl-17-(7-methoxy-2-phenylquinolin-4-yloxy)-2,14-dioxo-3,15-diazatricyclo[13.3.0.0^4,6]octa-dec-7-en-13-yl]carbamic acid tert-butyl ester], the EC50 [1, 3] was < 50 nM and the IC50 [2, 4] was < 50 nM.

`COc1ccc2c(O[C@@H]3C[C@H]4C(=O)N[C@]5(C(=O)NS(=O)(=O)C6CC6)C[C@H]5/C=C\CCCCC[C@H](NC(=O)OC(C)(C)C)C(=O)N4C3)cc(-c3csc(C(C)C)n3)nc2c1` [Compound 27] was tested, and the EC50 [1, 3] was < 50 nM and the IC50 [2, 4] was < 50 nM.

For `COc1ccc2c(O[C@@H]3C[C@H]4C(=O)N[C@]5(C(=O)NS(=O)(=O)C6CC6)CC5CCCCCC[C@H](NC(=O)CC5CC5)C(=O)N4C3)cc(-c3ccccc3)nc2c1` (stereo partly drawn) [Compound 24, (1S,4R,6R,14S,17R)-N-[4-Cyclopropanesulfonylaminocarbonyl-17-(7-methoxy-2-phenylquinolin-4-yloxy)-2,14-dioxo-3,15-diazatricyclo[13.3.0.0^4,6]-octadec-13-yl]-2-cyclopropylacetamide], the EC50 [1, 3] was < 50 nM and the IC50 [2, 4] was < 50 nM.

In the case of `COc1ccc2c(O[C@@H]3C[C@H]4C(=O)N[C@]5(C(=O)NS(=O)(=O)C6CC6)C[C@H]5/C=C\CCCCC[C@H](NC(=O)OC(C)(C)C)C(=O)N4C3)cc(-c3ccccc3)nc2c1` [Compound 9, (1S,4R,6S,14S,18R)-7-cis-[4-Cyclopropanesulfonylamino-carbonyl-18-(7-methoxy-2-phenylquinolin-4-yloxy)-2,15-dioxo-3,16-diazatricyclo[14.3.0.0^4,6]nonadec-7-en-14-yl]carbamic acid tert-butyl ester], the EC50 [1, 3] is reported as < 50 nM and the IC50 [2, 4] is reported as < 50 nM.

In the case of `COc1ccc2c(O[C@@H]3C[C@H]4C(=O)N[C@]5(C(=O)NS(=O)(=O)C6CC6)C[C@H]5/C=C/CC[C@H](NC(=O)OC(C)(C)C)C(=O)N4C3)cc(-c3ccccc3)nc2c1` [Compound 1, (1S,4R,6S,11S,15R)-7-trans-[4-Cyclopropanesulfonyl-amino-carbonyl-15-(7-methoxy-2-phenylquinolin-4-yloxy)-2,12-dioxo-3,13-diazatricyclo[11.3.0.0^4,6]hexa-dec-7-en-11-yl]carbamic acid tert-butyl ester], the EC50 [1, 3] is reported as < 50000 nM and the IC50 [2, 4] is reported as < 5000 nM.

For `COc1ccc2c(O[C@@H]3C[C@H]4C(=O)N[C@]5(C(=O)NS(=O)(=O)C6CC6)C[C@H]5/C=C\CCCCC[C@H](NC(=O)OC(C)(C)C)C(=O)N4C3)cc(-c3ccccc3)nc2c1` (relative stereo) [Compound 11, (1S,4R,6S,13S,18R)-7-cis-[4-Cyclopropanesulfonyl-aminocarbonyl-18-(7-methoxy-2-phenylquinolin-4-yloxy)-2,15-dioxo-3,16-diazatricyclo-[14.3.0.0^4,6]nona-dec-7-en-14-yl]carbamic acid tert-butyl ester], the EC50 ([1]; HCV replicon cell assay, read-out: EC50) was < 50 nM and the IC50 ([2]; HCV NS3/4A protease FRET assay in vitro, read-out: IC50) was < 50 nM.

`COc1ccc2c(O[C@@H]3C[C@H]4C(=O)N[C@]5(C(=O)NS(=O)(=O)C6CC6)C[C@H]5CCCCCC[C@H](N)C(=O)N4C3)cc(-c3ccccc3)nc2c1` [Compound 14, (1S,4R,6R,13S,17R)-Cyclopropanesulfonic acid [13-amino-17-(7-methoxy-2-phenylquinolin-4-yloxy)-2,14-dioxo-3,15-diazatricyclo[13.3.0.0^4,6]-octadecane-4-carbonyl]amide dihydrochloride] was tested, and the EC50 [1, 3] was < 50 nM and the IC50 [2, 4] was < 50 nM.
